For series [1] the following is noted: Liquid; for mass density: 101.33 kPa; for vapor or sublimation pressure: 383.15 K, Ebulliometric method (Recirculating still).
Series [2] can be described thus: refractive index (Na D-line) (dimensionless). The settings on record: 101.33 kPa, Liquid, Standard Abbe refractometry.

5 compounds from the NIST ThermoML archive (doi:10.1021/je0505366) can be followed below.

Molecules are shown by their SMILES. ± gives the expanded uncertainty stated by the source.

As to `Nc1ccccc1` [aniline], in series [1] (293.15 K), the mass density amounted to 1021.72 ± 0.18 kg/m3. The “vapor or sublimation pressure” value in series [1] came out at 9.21 ± 0.02 kPa. Also, the refractive index in series [2] (293.15 K) came to 1.5862 ± 0.0007.

As for `NC1CCCCC1` [cyclohexylamine], the mass density in series [1] (303.15 K) stood at 858.2 ± 0.23 kg/m3. In addition, in series [2] (288.15 K), the refractive index stood at 1.4624 ± 0.0007.

On to `CCCCCCCC` [octane], for which the mass density in series [1] (298.15 K) amounted to 698.49 ± 0.39 kg/m3. Further, the “vapor or sublimation pressure” value in series [1] is 64.09 ± 0.07 kPa. In addition, the refractive index in series [2] (298.15 K) stood at 1.3946 ± 0.0007.

Turning to `Cc1ccccc1` [toluene], the mass density in series [1] (293.15 K) amounted to 866.78 ± 0.23 kg/m3. The refractive index in series [2] (293.15 K) is on record as 1.496 ± 0.0007.

Take `O` [water]: in series [2] (293.15 K), the refractive index turned out to be 1.3336 ± 0.0007.
